Laboratory results: PMC8569887 (Journal of medicinal chemistry, 2021)
Entries after “also recorded” stand apart in the source; their conditions may differ.

Assays:
QBI293 cells = assay: Cytotoxicity in rapidly dividing QBI293 cells; format: cell-based; details: values in Supporting Information
HeLa cells = assay: Cytotoxicity in rapidly dividing HeLa cells; format: cell-based; details: values in Supporting Information
[1] = test system: primary rat cortical neurons (axonal AcTub staining); format: cell-based; details: 1 μM compound; for AcTub staining and axonal processes upon co-addition with okadaic acid: +OA (15 nM, 8 hours); for axonal acetyl-tubulin staining in the absence of OA: relative to vehicle
[2] = test system: primary mouse cortical neurons (AcTub levels); assay: AcTub ELISA in primary mouse cortical neurons treated with okadaic acid; format: cell-based; details: 10 μM (higher concentration)
[3] = Brain and plasma pharmacokinetics after i.p. dosing; format: in vivo; details: CD1 mice

SMILES	cytotoxicity IC50, side-by-side comparison of enantiomers (QBI293 cells)	cytotoxicity IC50, side-by-side comparison of enantiomers (HeLa cells)	AcTub staining and axonal processes upon co-addition with okadaic acid [1]	axonal acetyl-tubulin staining in the absence of OA [1]	AcTub levels in neuron homogenates in the presence of OA [2]	metabolic stability from plasma PK compared with lead compound 3 ([3]; i.p. dosing, compared to 3)	clearance compared to 3 ([3]; i.p. injection)	plasma half-life compared to 3 ([3]; i.p. injection)
CC(C)[C@@H](Nc1c(-c2c(F)cc(F)cc2F)c(Cl)nc2ncnn12)C(F)(F)F [Compound 46, (R)-5-Chloro-N-(1,1,1-trifluoro-3-methylbutan-2-yl)-6-(2,4,6-trifluorophenyl)-[1,2,4]triazolo[1,5-a]pyrimidin-7-amine]	did not reveal significant differences in IC50 values	did not reveal significant differences in IC50 values	–	–	–	–	–	–
CC(C)[C@@H](C)Nc1c(-c2c(F)cc(F)cc2F)c(Cl)nc2ncnn12 [Compound 3, reference compound]	–	–	normalization of AcTub staining and axonal processes	increased axonal acetyl-tubulin staining	–	–	–	–
CC(C)[C@H](Nc1c(-c2c(F)cc(F)cc2F)c(Cl)nc2ncnn12)C(F)(F)F [Compound 47, (S)-5-Chloro-N-(1,1,1-trifluoro-3-methylbutan-2-yl)-6-(2,4,6-trifluorophenyl)-[1,2,4]triazolo[1,5-a]pyrimidin-7-amine]	did not reveal significant differences in IC50 values	did not reveal significant differences in IC50 values	–	–	–	–	–	–
C[C@@H](Nc1c(-c2c(F)cc(C#N)cc2F)c(Cl)nc2ncnn12)C(C)(C)C [Compound 69, (R)-4-(5-Chloro-7-((3,3-dimethylbutan-2-yl)amino)-[1,2,4]triazolo[1,5-a]pyrimidin-6-yl)-3,5-difluorobenzonitrile]	–	–	protects the MT network from okadaic acid-induced collapse; also recorded: normalization of AcTub staining and axonal processes	increased axonal acetyl-tubulin staining	AcTub levels comparable to those in neurons without OA treatment	greater metabolic stability	reduced clearance	increased plasma half-life
